Data reported in publication PMC9523135, “Apamin structure and pharmacology revisited” (Frontiers in Pharmacology, 2022).
Values after ≈ are worked out from the molar mass of the structure shown. Where two headings read alike, the source gives them in different places.

Assays:
E. faecalis = assay: Antimicrobial assay, microtitre broth dilution, E. faecalis; format: cell-based, Enterococcus faecalis ATCC 29212; settings: lowest concentration causing 100% growth inhibition; 24 h, 37°C; n = 5
Experimental: Apamin was tested against Gram-positive (Enterococcus faecalis ATCC 29212, Staphylococcus aureus subsp. aureus ATCC 29213) and Gram-negative bacteria (Escherichia coli ATCC 25922, Pseudomonas aeruginosa ATCC 27853) following the previously described modification of the microtitre broth dilution method ([Vassilevski et al., 2010]). Those bacterial strains were also subjected to the treatment by melittin in the same concentration range to serve as a positive control.
Briefly, bacteria were cultured in a low-salt LB medium. The two-fold microtitre broth dilution assay was carried out in 96-well sterile plates in a final volume of 100 μL. Mid-exponential-phase cultures were diluted to a final concentration of 10^5 colony-forming units·ml^−1. Pure peptides were dissolved in 10 μL of water and added to 90 μL of the bacterial dilution. The samples, a non-treated control and a sterility control were tested in five independent experiments (n = 5). The microtitre plates were incubated for 24 h at 37°C, and growth inhibition was determined by measuring the absorbance at 620 nm. Minimum inhibitory concentration (MIC) is expressed as the lowest concentration of peptide that caused 100% bacterial growth inhibition.

KCa3.1 = assay: Patch-clamp, HEK293 cells expressing hKCa3.1 (IK); format: cell-based, human; settings: 1 µM TRAM-34
Experimental: (§1) HEK293 cells stably expressing hKCa1.1 (BK, GenBank accession number: NM_002247), hKCa2.1 (SK1, NM_002248), and hKCa3.1 (IK, AH009923) or COS7 cells stably expressing hKCa2.3 (SK3, AJ251016) were generated and cultured as previously described ([Sankaranarayanan et al., 2009]). HEK293 cells stably expressing rKCa2.2 (SK2, NM_019314) were a gift from Dr. Mio Zhang (Chapman University, Irvine).
(§2) All experiments were conducted with an EPC-10 amplifier (HEKA) in the whole-cell configuration with a holding potential of –80 mV. Pipette resistances averaged around 2.5 MΩ. […] Free Ca^2+ concentrations were calculated with MaxChelator (developed by Chris Patton, Stanford University) assuming a temperature of 25°C, pH 7.2, and ionic strength of 160 mM. […] Please note that the provided concentrations are what was weighed in to achieve an initially hyperosmolar solution that was diluted with water to 310 mOsm for the internal and 315 mOsm for the external solution as measured with a VAPRO Vapor pressure osmometer (Wescor). […]
(§3) KCa2 and KCa3.1 currents were elicited by 200-ms voltage ramps from –120 to 40 mV applied every 10 s, and the fold decrease of slope conductance at –80 mV was taken as a measure of apamin-induced channel inhibition. […] KCa1.1 channel activity was recorded with a step protocol, in which cells were stepped to +40 mV for 100 ms at 30-s intervals. […]

KCa2.1 = biological target: T1, KCa2.1 (Homo sapiens, UniProt Q92952); assay: Patch-clamp, HEK293 cells expressing hKCa2.1 (SK1); format: cell-based; settings: voltage ramps –120 to 40 mV, slope conductance at –80 mV, 1 μM free Ca^2+ internal; Hill fit, n ≥ 5; 95% CI 3.3–5.0 nM
T1 construct: expressed in transfected cells
Experimental: as §1, §2, §3

KV11.1 = assay: Two-electrode voltage-clamp, X. laevis oocytes, hKV11.1 (hERG); format: cell-based, human; set-up: key to effect on current: N.E.: no effect at 5 μM concentration; settings: 5 μM apamin, n = 5
Experimental: Linearized plasmids bearing the ion channel genes were transcribed using the mMESSAGE mMACHINE SP6 or T7 transcription kits (Ambion) to prepare the respective cRNA. The harvesting of stage V–VI oocytes from anaesthetized female X. laevis frogs was described previously ([Liman et al., 1992]; [Peigneur et al., 2021]). Oocytes were injected with 50 nL of cRNA at a concentration of 1 ng nl^−1 using a microinjector (Drummond Scientific). The oocytes were incubated at 16°C in ND96 solution containing (in mM): NaCl, 96; KCl, 2; CaCl2, 1.8; MgCl2, 2; and HEPES, 5 (pH 7.4), supplemented with 50 mg l^−1 gentamicin sulfate.
Recordings were performed at room temperature (18°C–22°C) using a Geneclamp 500 amplifier (Molecular Devices) controlled by a pClamp data acquisition system (Axon Instruments). Whole-cell currents from oocytes were recorded 1–4 days after cRNA injection. Bath solution composition was ND96, or HK containing (in mM): NaCl, 2; KCl, 96; CaCl2, 1.8; MgCl2, 2; and HEPES, 5 (pH 7.4). Voltage and current electrodes were filled with 3 M KCl. […]
Currents were evoked by a 100 ms (NaV) or 500 ms (KV) depolarization to the voltage corresponding to the maximal activation of the channels in control conditions from a holding potential of −90 mV. […] TRP currents were measured in ND96 at −90 mV during 400 s. […] Peak current amplitude was measured prior to and following the application of the peptide. […]

mice = settings: cited from earlier work
Source text: The symptoms are apparently of central origin because the toxicity increases by a factor of 1,000–10,000 and the progression of poisoning is faster in case of i.c.v. injection, but the clinical picture stays the same ([Habermann, 1977], [Habermann, 1984]).

KCa2 = settings: Kalium database; ref Kuzmenkov et al., 2016; Tabakmakher et al., 2019; cited from earlier work
Source text: (§4) According to the Kalium database (https://kaliumdb.org) ([Kuzmenkov et al., 2016]; [Tabakmakher et al., 2019]), six of these substances were identified in scorpion venom (AmP05, maurotoxin, Pi-1, scyllatoxin, tamapin, and Ts9). […] Intere ...

KCa2.2 = settings: cited from earlier work
Source text: as §4

T1 sequence (Q92952 whole entry): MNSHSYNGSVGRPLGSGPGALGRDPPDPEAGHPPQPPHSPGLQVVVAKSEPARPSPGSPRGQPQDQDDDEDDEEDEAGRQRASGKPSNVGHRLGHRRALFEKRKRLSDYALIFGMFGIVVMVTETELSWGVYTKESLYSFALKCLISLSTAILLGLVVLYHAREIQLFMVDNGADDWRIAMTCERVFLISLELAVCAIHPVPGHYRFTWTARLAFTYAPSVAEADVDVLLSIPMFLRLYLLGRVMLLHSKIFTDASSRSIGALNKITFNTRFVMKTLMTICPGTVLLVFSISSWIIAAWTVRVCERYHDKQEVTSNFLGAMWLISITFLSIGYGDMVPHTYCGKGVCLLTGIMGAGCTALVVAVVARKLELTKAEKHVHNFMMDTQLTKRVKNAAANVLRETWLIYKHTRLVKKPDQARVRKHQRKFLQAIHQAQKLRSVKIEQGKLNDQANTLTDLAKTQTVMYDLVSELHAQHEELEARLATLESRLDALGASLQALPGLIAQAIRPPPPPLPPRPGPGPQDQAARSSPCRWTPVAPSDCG

CC[C@H](C)[C@H](NC(=O)CN)C(=O)NCC(=O)N[C@@H](C)C(=O)N[C@H](C(=O)N[C@@H](CC(C)C)C(=O)N[C@@H](CCCCN)C(=O)N[C@H](C(=O)N[C@@H](CC(C)C)C(=O)N[C@H](C(=O)N[C@H](C(=O)NCC(=O)N[C@@H](CC(C)C)C(=O)N1CCC[C@H]1C(=O)N[C@@H](C)C(=O)N[C@@H](CC(C)C)C(=O)N[C@H](C(=O)N[C@@H](CO)C(=O)N[C@@H](Cc1c[nH]c2ccccc12)C(=O)N[C@H](C(=O)N[C@@H](CCCCN)C(=O)N[C@@H](CCCNC(=N)N)C(=O)N[C@@H](CCCCN)C(=O)N[C@@H](CCCNC(=N)N)C(=O)N[C@@H](CCC(N)=O)C(=O)N[C@@H](CCC(N)=O)C(N)=O)[C@@H](C)CC)[C@@H](C)CC)[C@@H](C)O)[C@@H](C)O)C(C)C)C(C)C [Melittin]
MIC (E. faecalis): 0.5 µM (≈ 1.42 µg/mL)

Clc1ccccc1C(c1ccccc1)(c1ccccc1)n1cccn1 [TRAM-34]
block of KCa3.1 currents (KCa3.1): potently blocked

CC(C)C[C@@H]1NC(=O)[C@H](C)NC(=O)[C@H]([C@@H](C)O)NC(=O)[C@H](CCC(=O)O)NC(=O)[C@@H]2CCCN2C(=O)[C@H](C)NC(=O)[C@H](CCCCN)NC(=O)[C@@H]2CSSC[C@@H](C(=O)N[C@@H](CCC(N)=O)C(=O)N[C@@H](CCC(N)=O)C(=O)N[C@@H](Cc3cnc[nH]3)C(N)=O)NC(=O)[C@H](CCCNC(=N)N)NC(=O)[C@H](CCCNC(=N)N)NC(=O)[C@H](C)NC(=O)[C@H](CSSC[C@H](N)C(=O)N[C@@H](CC(N)=O)C(=O)N2)NC1=O [apamin]
IC50 (KCa2.1): 4.1 nM
current ratio (Iapamin/Icontrol) (KV11.1; mean ± SD): 1.07 ± 0.06
effect on current (KV11.1): N.E.
factor of toxicity increase on i.c.v. injection (mice; i.c.v. compared with i.v., ref Habermann, 1977, 1984): 1,000–10,000
LD50 (mice; i.v., ref Habermann and Reiz, 1965, 1972): ≈ 4 mg kg^−1
symptoms when injected into mice (mice; ref Habermann and Reiz, 1965, 1972): muscle spasms, jerks, and convulsions

maurotoxin (VSCTGSKDCYAPCRKQTGCPNAKCINKSCKCYGC; UniProt P80719 1-34, looked up)
affinity on KCa2 (KCa2): high (nanomolar) affinity

scyllatoxin: scorpion toxin from Leiurus quinquestriatus hebraeus (AFCNLRMCQLSCRSLGLLGKCIGDKCECVKH; UniProt P16341 1-31, looked up)
IC50 range in words (KCa2.2; ref Shakkottai et al., 2001): subnanomolar range
affinity on KCa2 (KCa2): high (nanomolar) affinity

tamapin: scorpion toxin from Mesobuthus tamulus (AFCNLRRCELSCRSLGLLGKCIGEECKCVPY; UniProt P59869 1-31, looked up)
IC50 range in words (KCa2.2; ref Pedarzani et al., 2002): subnanomolar range
affinity on KCa2 (KCa2): high (nanomolar) affinity
